Assay results reported in PubChem BioAssay (NCI).
Several values for one entry are separate records, joined by “and”; a condition that tells them apart may be missing. Identical values can stand only once.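 How tested: cells in 96-well plates exposed to compound for 48 hours at five concentrations. Abbreviation: GI50, concentration required for 50% inhibition of growth. Definition used: TGI = concentration required for complete inhibition of growth.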

Columns and labels:
Assay in all cases: DTP human tumour cell line panel, 48 h
SNB-19 CNS = test system: SNB-19 CNS
UACC-62 melanoma = test system: UACC-62 melanoma
SK-MEL-28 melanoma = test system: SK-MEL-28 melanoma
UO-31 renal = test system: UO-31 renal
NCI-H460 lung = test system: NCI-H460 lung
HL-60(TB) leukemia = test system: HL-60(TB) leukemia
CAKI-1 renal = test system: CAKI-1 renal
HCT-116 colon = test system: HCT-116 colon
IGROV1 ovarian = test system: IGROV1 ovarian
SF-268 CNS = test system: SF-268 CNS

Compound | GI50 (SNB-19 CNS) [µM] | TGI (SNB-19 CNS) | GI50 (UACC-62 melanoma) [nM] | TGI (UACC-62 melanoma) | GI50 (SK-MEL-28 melanoma) [µM] | TGI (SK-MEL-28 melanoma) | GI50 (UO-31 renal) [µM] | TGI (UO-31 renal) | GI50 (NCI-H460 lung) [nM] | TGI (NCI-H460 lung) | GI50 (HL-60(TB) leukemia) [nM] | TGI (HL-60(TB) leukemia) | GI50 (CAKI-1 renal) [nM] | TGI (CAKI-1 renal) | GI50 (HCT-116 colon) [nM] | TGI (HCT-116 colon) | GI50 (IGROV1 ovarian) [nM] | TGI (IGROV1 ovarian) [µM] | GI50 (SF-268 CNS) [µM] | TGI (SF-268 CNS)
CCCCCCCCCCCC(=O)[O][Sn]([CH2]CCC)([CH2]CCC)[CH2]CCC | 0.0859 | 0.228 µM | 51.5 | 0.11 µM | 0.0649 | 0.179 µM | 0.0347 | 0.0849 µM | 43.8 | 0.156 µM | 56.7 | 0.155 µM | 96.5 | 0.216 µM | 37.9 | 0.14 µM | 54.7 | 0.175 | 0.0535 | 0.199 µM
O=C1/C=C/[C@@H](O)[C@@H]2C[C@@H](O)C[C@H]2/C=C/CCCCO1 | 0.749 | > 100 µM | 416 | > 100 µM | 0.28 |  | 0.304 | > 38.1 µM | 1770 | > 100 µM | 1610 |  | 785 |  | 447 | 1.53 µM | 831 | 3.73 | 0.33 | 
CN(Cc1cccc(Cl)c1)c1ccc(CO)c(Cl)c1 | 27.3 | > 100 µM | 321 | 3.75 µM | 16.4 | 43.9 µM | 8.41 | 37.4 µM | 1440 | 15.2 µM | 13900 | 45 µM | 2360 | 23.4 µM | 481 | 11.3 µM | 448 | 4.16 | 24 | > 53.5 µM
c1ccc(Oc2cnc3ccccc3n2)cc1 | > 100 | > 100 µM | 85300 | > 100 µM | > 100 | > 100 µM | 39.1 | > 100 µM | > 100000 | > 100 µM | 18700 | > 100 µM | 10200 | 50 µM | > 100000 | > 100 µM | 74500 | > 100 | 64 | > 100 µM
O=C1COCCN1c1ccc(NCc2cn(Cc3ccc(F)cc3)c3ccccc23)cc1 | 19.4 | > 100 µM | 97.8 | 0.617 µM | 15.4 | 77.9 µM | 2.42 | 18.2 µM | 133 | 29.2 µM | 4800 | 24.3 µM | 25.2 | 0.418 µM | 61.8 | 14 µM | 66.8 | 1.05 | 9.7 | 50.4 µM
COc1ccc2c(c1)[n+](=O)c(C(=O)C/C(=N\NC(=O)C[N+](C)(C)C)C(=O)Nc1cc(Cl)ccc1Cl)c(C)n2O |  | > 100 µM |  | > 100 µM |  | > 100 µM |  | > 100 µM |  | > 100 µM |  | > 100 µM |  | > 100 µM |  | > 100 µM |  | > 100 |  | > 100 µM
CCOc1ccc(-n2cc(-c3ccc(N(C)C)cc3)[n+]3c2CCCCC3)cc1 | 0.452 | > 100 µM | 199 | 13.5 µM | 0.841 | > 81.9 µM | 4.94 | 68.5 µM | 349 | > 38 µM | 164 | 1.53 µM | 10400 | > 100 µM | 267 | > 100 µM | 923 | > 100 | 2.2 | > 100 µM
CCCCCCCCCCCCCCCc1nc(SCC(=O)O)n[nH]1 |  | > 100 µM |  | > 100 µM |  | > 100 µM |  | > 100 µM |  | > 100 µM |  | > 100 µM |  | > 100 µM |  | > 100 µM |  | > 100 |  | > 100 µM
COc1cc2c(cc1OC)-c1c(c3ccc([N+](=O)[O-])cc3c(=O)n1CCCBr)C2=O | 33.3 | > 100 µM | 2830 | 75.4 µM | > 100 | > 100 µM | 5.23 | > 100 µM | 573 | > 100 µM | 1310 | 10.2 µM | 513 | > 100 µM | 4310 | > 100 µM | 51800 | > 100 | 29 | > 100 µM
O=P1(NCCCl)OCCC(OO)N1CCCl (centres undefined) |  | > 100 µM |  | 63.7 µM |  | 39.4 µM |  | > 100 µM |  | > 100 µM |  | > 51.9 µM |  | 35.9 µM |  | 33.6 µM |  | > 100 |  | > 100 µM
Fc1cccc(C2SCc3nc4ccccc4n32)c1 (centres undefined) |  | > 100 µM |  | > 100 µM |  | > 10 µM |  | > 100 µM |  | > 100 µM |  | 62.8 µM |  | > 100 µM |  | > 100 µM |  | > 100 |  | > 100 µM
COc1nc(C(Cl)(Cl)Cl)c(Cl)c(OC)c1Cl | > 40.8 | > 59.3 µM and 59.4 µM | > 50400 | > 88.8 µM and 54.5 µM | > 50.4 | > 83.5 µM and 75.6 µM |  | > 64.3 µM and 75.4 µM | > 39400 | > 57.9 µM and 61.2 µM | > 41900 | > 60.3 µM and 71.8 µM | > 46000 | > 72.9 µM and 74.6 µM |  | > 57.8 µM and 78.3 µM | > 58500 | 89.8 | > 52.2 | > 92.1 µM and 72.2 µM
